pIC50: −log10 of the molar value.
Legend:
C-Kit = C-Kit (Homo sapiens, UniProt P10721); assay: C-Kit-isolated kinase-inhibition test; type: biochemical; conditions: 10 minutes incubation
Description: C-Kit-Isolated Kinase-Inhibition Test
Assay Solutions Substrate Solutions for 125 Assays:
10 μl of ATP (37.5 μM), 25 μCi of γ33P-ATP (˜+2.5 μl of Amersham redivue solution) and 10 μl of poly-(glu,tyr) are mixed with 1.23 ml of solvent (1×).
The compounds are brought to the desired concentration in the solvent (1×).
The corresponding enzymatic preparation is brought to the necessary concentration with the solvent (1×) to obtain 1.24 ml. Then, 12.5 μl of sodium vanadate solution is added.
The components are added in the following sequence to a microtiter plate with round or stippled floors:
10 μl of the inhibitor in 3× final concentration,
10 μl of substrate mixture,
said components are mixed, and the reaction is started by adding:
10 μl of enzyme preparation.
The batch is incubated for 10 minutes and then brought to a halt by adding 10 μl of stop solution. 10 μl of the thus treated batch is added to the phosphocellulose filter, rewashed in phosphoric acid, then dried and then melted in a meltilex scintillator and measured.

KDR kinase = KDR kinase (Homo sapiens, UniProt P35968); assay: Inhibition of the KDR kinase activity (33P-ATP, poly-(Glu4Tyr) filter assay); type: biochemical; conditions: 10 minutes at room temperature
Sequence of KDR kinase (P35968 20-1356): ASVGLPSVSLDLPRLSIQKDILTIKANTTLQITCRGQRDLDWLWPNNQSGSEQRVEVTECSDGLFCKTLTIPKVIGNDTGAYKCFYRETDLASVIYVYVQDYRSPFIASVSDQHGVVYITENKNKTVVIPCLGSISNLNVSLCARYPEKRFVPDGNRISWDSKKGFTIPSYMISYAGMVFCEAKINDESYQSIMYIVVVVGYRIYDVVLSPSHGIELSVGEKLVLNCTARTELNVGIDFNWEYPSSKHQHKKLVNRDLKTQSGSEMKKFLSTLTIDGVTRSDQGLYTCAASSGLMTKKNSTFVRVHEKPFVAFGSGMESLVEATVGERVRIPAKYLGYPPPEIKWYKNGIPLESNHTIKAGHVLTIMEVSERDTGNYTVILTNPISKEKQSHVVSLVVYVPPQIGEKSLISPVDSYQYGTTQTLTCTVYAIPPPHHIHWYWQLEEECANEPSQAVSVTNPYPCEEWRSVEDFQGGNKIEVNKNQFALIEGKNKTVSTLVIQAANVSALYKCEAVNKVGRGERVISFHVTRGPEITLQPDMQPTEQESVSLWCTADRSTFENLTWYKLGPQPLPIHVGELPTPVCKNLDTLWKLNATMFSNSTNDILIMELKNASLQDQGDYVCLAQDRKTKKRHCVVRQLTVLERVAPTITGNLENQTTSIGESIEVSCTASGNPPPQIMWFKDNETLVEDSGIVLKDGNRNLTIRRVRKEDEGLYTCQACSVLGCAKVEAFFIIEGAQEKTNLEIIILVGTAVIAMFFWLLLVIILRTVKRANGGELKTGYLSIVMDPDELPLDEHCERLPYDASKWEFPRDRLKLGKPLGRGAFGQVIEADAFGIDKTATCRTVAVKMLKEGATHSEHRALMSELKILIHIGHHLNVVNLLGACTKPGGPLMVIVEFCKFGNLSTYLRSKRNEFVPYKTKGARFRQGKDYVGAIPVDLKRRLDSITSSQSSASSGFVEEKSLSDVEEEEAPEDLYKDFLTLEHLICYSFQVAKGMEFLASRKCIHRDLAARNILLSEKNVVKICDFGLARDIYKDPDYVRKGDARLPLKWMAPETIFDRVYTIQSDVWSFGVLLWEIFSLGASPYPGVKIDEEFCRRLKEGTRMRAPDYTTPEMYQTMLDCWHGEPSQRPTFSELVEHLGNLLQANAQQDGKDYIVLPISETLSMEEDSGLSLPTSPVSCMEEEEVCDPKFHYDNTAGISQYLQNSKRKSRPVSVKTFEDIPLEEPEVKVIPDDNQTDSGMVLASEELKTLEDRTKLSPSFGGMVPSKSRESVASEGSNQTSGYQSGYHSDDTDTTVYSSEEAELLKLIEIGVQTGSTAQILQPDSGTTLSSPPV
Description: Solutions Required for the Tests
• Stock solution A: 3 mmol of ATP in water, pH 7.0 (−70° C.) • Stock solution B: g-33P-ATP 1 mCi/100 μl • Stock solution C: poly-(Glu4Tyr) 10 mg/ml in water Solution for Dilutions • Substrate solvent: 10 mmol of DTT, 10 mmol of manganese chloride, 100 mmol of magnesium chloride • Enzyme solution: 120 mmol of tris/HCl, pH 7.5, 10 μM of sodium vanadium oxide Sample Application 1 Inhibition of the KDR Kinase Activity in the Presence of the Compounds According to the Invention
In a microtiter plate (without protein binding) that tapers to a point, 10 μl of substrate mix (10 μl of volume of ATP stock solution A+25 μCi of g-33P-ATP (about 2.5 μl of stock solution B)+30 μl of poly-(Glu4Tyr) stock solution C+1.21 ml of substrate solvent), 10 μl of inhibitor solution (substances corresponding to the dilutions, 3% DMSO in substrate solvent as a control) and 10 μl of enzyme solution (11.25 μg of enzyme stock solution (KDR or FLT-1 kinase) are added at 4° C. in 1.25 ml of enzyme solution (dilute). It is thoroughly mixed and incubated for 10 minutes at room temperature. Then, 10 μl of stop solution (250 mmol of EDTA, pH 7.0) is added, mixed, and 10 μl of the solution is transferred to a P 81 phosphocellulose filter. Then, it is washed several times in 0.1 M phosphoric acid. The filter paper is dried, coated with Meltilex and measured in a microbeta counter.
The IC50 values are determined from the inhibitor concentration that is necessary to inhibit the phosphate incorporation to 50% of the uninhibited incorporation after removal of the blank reading (EDTA-stopped reaction).

Sequence of C-Kit (P10721 26-976): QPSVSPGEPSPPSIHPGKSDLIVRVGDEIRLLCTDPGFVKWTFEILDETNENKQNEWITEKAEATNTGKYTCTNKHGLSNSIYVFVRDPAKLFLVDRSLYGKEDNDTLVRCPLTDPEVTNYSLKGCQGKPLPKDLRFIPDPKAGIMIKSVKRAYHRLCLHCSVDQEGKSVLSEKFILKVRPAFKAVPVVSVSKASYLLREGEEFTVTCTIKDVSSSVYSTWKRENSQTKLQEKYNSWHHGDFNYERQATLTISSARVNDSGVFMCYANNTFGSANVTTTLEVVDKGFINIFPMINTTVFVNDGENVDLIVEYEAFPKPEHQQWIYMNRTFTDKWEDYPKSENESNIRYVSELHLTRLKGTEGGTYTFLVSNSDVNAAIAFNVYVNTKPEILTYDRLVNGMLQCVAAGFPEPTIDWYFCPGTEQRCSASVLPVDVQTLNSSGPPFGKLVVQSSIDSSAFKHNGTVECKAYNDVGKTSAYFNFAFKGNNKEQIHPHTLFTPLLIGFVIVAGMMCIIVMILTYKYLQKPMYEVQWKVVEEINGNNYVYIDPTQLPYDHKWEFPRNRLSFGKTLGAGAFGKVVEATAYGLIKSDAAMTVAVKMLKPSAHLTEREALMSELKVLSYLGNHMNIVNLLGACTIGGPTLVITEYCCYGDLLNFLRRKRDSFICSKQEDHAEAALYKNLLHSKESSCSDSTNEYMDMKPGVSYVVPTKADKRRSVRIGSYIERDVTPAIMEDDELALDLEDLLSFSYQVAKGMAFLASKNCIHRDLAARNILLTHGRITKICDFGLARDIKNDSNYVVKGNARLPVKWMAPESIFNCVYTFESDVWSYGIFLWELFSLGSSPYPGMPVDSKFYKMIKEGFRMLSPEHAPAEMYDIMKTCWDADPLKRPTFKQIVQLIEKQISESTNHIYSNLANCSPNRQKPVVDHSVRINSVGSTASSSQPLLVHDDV

Row | pIC50 (C-Kit) | pIC50 (KDR kinase) | melting point | Compound
1 | 5.30 | 9.00 | 105 °C | O=C(Nc1cc(C(F)(F)F)ccc1Cl)c1ccccc1NCc1ccncc1 [Example 14]
2 | 5.70 | 8.70 |  | O=C(Nc1cc(C(F)(F)F)ccc1F)c1ccccc1NCc1ccncc1 [Example 15]
3 | < 5.00 |  | 68 °C | O=C(Nc1cc(C(F)(F)F)ccc1C(F)(F)F)c1ccccc1NCc1ccncc1 [Example 17]
4 | 5.70 | 9.00 | 135.8 °C | O=C(Nc1ncc2ccccc2c1Br)c1ccccc1NCc1ccncc1 [Example 26]
5 | 6.30 | 7.30 | 172 °C | Cc1cc2cc(Cl)ccc2nc1NC(=O)c1ccccc1NCc1ccc(O)nc1 [Example 28]

The next lines start with the compound.

Row | Compound | pIC50 (C-Kit) | pIC50 (KDR kinase) | melting point
6 | O=C(Nc1cc2ccccc2oc1=O)c1ccccc1NCc1ccncc1 [Example 1, N-[2-Oxo-2H-1-benzopyran-3-yl-]-2-[(4-pyridyl)methyl]amino-benzoic acid amide] | 5.22 | 8.52 | 
7 | O=C(Nc1cc2cn[nH]c2cc1Cl)c1ccccc1NCc1ccncc1 [Example 2, N-(6-Chloroindazol-5-yl)-2-[(4-pyridyl)methyl]amino-benzoic acid amide] | < 5.00 | 6.70 | 
8 | Cc1cc2oc(=O)ccc2cc1NC(=O)c1ccccc1NCc1ccncc1 [Example 3] | 5.10 | 7.52 | 191.2 °C
9 | COc1ccc2cc(NC(=O)c3ccccc3NCc3ccncc3)c(=O)oc2c1 [Example 5] | < 5.00 | 8.00 | 171 to 172 °C
10 | O=C(Nc1cc2cc(Cl)ccc2oc1=O)c1ccccc1NCc1ccncc1 [Example 6] |  | 6.70 | 182 to 184 °C
11 | O=C(Nc1cc2cc(Br)ccc2oc1=O)c1ccccc1NCc1ccncc1 [Example 7] | < 5.00 | 6.70 | 198 to 200 °C
12 | Cc1cc2cn[nH]c2cc1NC(=O)c1ccccc1NCc1ccncc1 [Example 9] |  | 7.40 | 
13 | O=C(Nc1cc2[nH]ncc2cc1Cl)c1ccccc1NCc1ccncc1 [Example 10] | < 5.00 | 8.00 | 236.7 °C
14 | Cc1cc2[nH]ncc2cc1NC(=O)c1ccccc1NCc1ccncc1 [Example 11] | < 5.00 | 6.00 | 224.2 °C
15 | COc1ccc(C(F)(F)F)cc1NC(=O)c1ccccc1NCc1ccncc1 [Example 13] | 5.30 | 7.30 | 135 °C
